Assays:
USA_WA1/2020 SARS CoV-2 = test: microbe, parasite or virus in culture; type: cell-based; settings: Severe acute respiratory syndrome coronavirus 2, Vero C1008, 72 h, read-out: SARS-2 EC50 (μM) VeroE6
SARS-2 [1] = tested on: SARS-2
in vitro = settings: African green monkey
Toronto 2 SARS CoV-1 = test: organism not typed; type: cell-based; settings: Vero C1008, 72 h, read-out: SARS-1 EC50 (μM) VeroE6
SARS-2 [2] = test: microbe, parasite or virus in culture; type: cell-based; settings: Severe acute respiratory syndrome coronavirus 2, read-out: SARS-2 VU-EC50 (μM) (A549-hACE2)

SMILES	EC50 (USA_WA1/2020 SARS CoV-2)	SARS-2 VU-VTR @ 20 μM (A549-hACE2) (logs) (SARS-2 [1])	CC50 (in vitro)	EC50 (Toronto 2 SARS CoV-1)	EC50 (SARS-2 [2])
O=C1CCc2cc(C(=O)Nc3cccc(C#Cc4ccccn4)c3)ccc2N1 [Compound 1, 2-Oxo-N-(3-(pyridin-2-ylethynyl)phenyl)-1,2,3,4-tetrahydroquinoline-6-carboxamide]	5.81 ± 2.51 µM	1.95 logs	> 30 µM	5.07 ± 2.89 µM	7.32 µM
CN1C(=O)CCc2cc(C(=O)Nc3cccc(C#Cc4ccccn4)c3)ccc21 [Compound 2, 1-Methyl-2-oxo-N-(3-(pyridin-2-ylethynyl)phenyl)-1,2,3,4-tetrahydroquinoline-6-carboxamide]	2.55 µM	3.32 logs	> 30 µM	1.46 µM	3.59 µM
O=C1CCCc2cc(C(=O)Nc3cccc(C#Cc4ccccn4)c3)ccc2N1 [Compound 4, 2-Oxo-N-(3-(pyridin-2-ylethynyl)phenyl)-2,3,4,5-tetrahydro-1H-benzo[b]azepine-7-carboxamide]	1.5 µM	2.55 logs	22.9 µM	1.39 µM	1.5 µM
CC(=O)Nc1ccc(C(=O)Nc2cccc(C#Cc3ccccn3)c2)cc1 [Compound 5, 4-Acetamido-N-(3-(pyridin-2-ylethynyl)phenyl)benzamide]	3.89 µM	2.05 logs	> 30 µM	2.14 µM	3.58 µM
O=C(Nc1cccc(C#Cc2ccccn2)c1)c1ccc(NC(=O)C2CC2)cc1 [Compound 8, 4-(Cyclopropanecarboxamido)-N-(3-(pyridin-2-ylethynyl)phenyl)benzamide]	0.94 µM	1.53 logs	> 30 µM	0.47 µM	1.07 µM
O=C(Nc1cccc(C#Cc2ccccn2)c1)c1ccc(NC(=O)C2CCC2)cc1 [Compound 9, 4-(Cyclobutanecarboxamido)-N-(3-(pyridin-2-ylethynyl)phenyl)benzamide]	0.26 µM	1.88 logs	> 30 µM	0.21 µM	0.69 µM
O=C(Nc1cccc(C#Cc2ccccn2)c1)c1ccc(N2CCNC2=O)cc1 [Compound 14, 4-(2-Oxoimidazolidin-1-yl)-N-(3-(pyridin-2-ylethynyl)phenyl)benzamide]	1.06 µM	1.84 logs	> 30 µM	1.05 µM	2.31 µM
CC(C)N1CCN(c2ccc(C(=O)Nc3cccc(C#Cc4ccccn4)c3)cc2)C1=O [Compound 17, 4-(3-Isopropyl-2-oxoimidazolidin-1-yl)-N-(3-(pyridin-2-ylethynyl)phenyl)benzamide]	0.61 µM	2.12 logs	> 30 µM	2.37 µM	0.43 µM
O=C(Nc1cccc(C#Cc2ccccn2)c1)c1ccc(N2CCCCC2=O)cc1 [Compound 22, 4-(2-Oxopiperidin-1-yl)-N-(3-(pyridin-2-ylethynyl)phenyl)benzamide]	1.87 µM	2.4 logs	> 30 µM	1.3 µM	1.05 µM
O=C(Nc1ccc(C(=O)Nc2cccc(C#Cc3ccccn3)c2)cc1)c1ccc(F)cc1 [Compound 26, 4-Fluoro-N-(4-((3-(pyridin-2-ylethynyl)phenyl)carbamoyl)phenyl)benzamide]	0.49 µM	1.16 logs	> 30 µM	0.35 µM	0.69 µM
CC(=O)Nc1ccc(C(=O)Nc2cccc(C#Cc3ccccn3)c2)cc1F [Compound 29, 4-Acetamido-3-fluoro-N-(3-(pyridin-2-ylethynyl)phenyl)benzamide]	1.07 µM	2.6 logs	> 30 µM	0.76 µM	1.86 µM
O=C(Nc1cccc(C#Cc2ccccn2)c1)c1ccc(-c2ccn[nH]2)cc1 [Compound 40, 4-(1H-Pyrazol-5-yl)-N-(3-(pyridin-2-ylethynyl)phenyl)benzamide]	1 µM	3.2 logs	38.6 µM	0.53 µM	0.81 µM
COC(=O)c1ccc(C(=O)Nc2cccc(C#Cc3ccccn3)c2)cc1 [Compound 43, Methyl 4-((3-(pyridin-2-ylethynyl)phenyl)carbamoyl)benzoate]	0.52 µM	2.36 logs	> 30 µM	0.26 µM	0.58 µM
CC(C)(C)OC(=O)c1ccc(C(=O)Nc2cccc(C#Cc3ccccn3)c2)cc1 [Compound 44, tert-Butyl 4-((3-(pyridin-2-ylethynyl)phenyl)carbamoyl)benzoate]	0.16 µM	2.41 logs	24.2 µM	0.07 µM	0.22 µM
COc1cc(C#Cc2ccccn2)cc(NC(=O)c2ccc3c(c2)CCC(=O)N3)c1 [Compound 46, N-(3-Methoxy-5-(pyridin-2-ylethynyl)phenyl)-2-oxo-1,2,3,4-tetrahydroquinoline-6-carboxamide]	0.78 µM	2.66 logs	> 30 µM	0.83 µM	0.53 µM
COc1cc(C#Cc2ccccn2)cc(NC(=O)c2ccc(N3CCCCC3=O)cc2)c1 [Compound 48, N-(3-Methoxy-5-(pyridin-2-ylethynyl)phenyl)-4-(2-oxopiperidin-1-yl)benzamide]	0.45 µM	3.08 logs	> 30 µM	0.21 µM	0.1 µM

SMILES	EC50 (USA_WA1/2020 SARS CoV-2)	SARS-2 VU-VTR @ 20 μM (A549-hACE2) (logs) (SARS-2 [1])	CC50 (in vitro)	EC50 (Toronto 2 SARS CoV-1)	EC50 (SARS-2 [2])
O=C(Nc1ccc(N2CCC2=O)cc1)c1cccc(C#Cc2ccccn2)c1 [Compound 57, N-(4-(2-oxoazetidin-1-yl)phenyl)-3-(pyridin-2-ylethynyl)benzamide]	4.01 µM		> 30 µM	1.74 µM	
O=C(Nc1ccc(NC(=O)N2CCC2)cc1)c1cccc(C#Cc2ccccn2)c1 [Compound 60, N-(4-(3-(pyridin-2-ylethynyl)benzamido)phenyl)azetidine-1-carboxamide]	7.75 µM		> 30 µM	3.93 µM	
CC1(NC(=O)c2ccc(NC(=O)c3cccc(C#Cc4ccccn4)c3)cc2)CC1 [Compound 61, N-(4-((1-methylcyclopropyl)carbamoyl)phenyl)-3-(pyridin-2-ylethynyl)benzamide]	0.71 µM		> 30 µM	> 30 µM	
O=C(Nc1ccc(C(=O)NC2CCCC2)cc1)c1cccc(C#Cc2ccccn2)c1 [Compound 62, N-(4-(cyclopentylcarbamoyl)phenyl)-3-(pyridin-2-ylethynyl)benzamide]	0.48 µM		> 30 µM	> 30 µM	
COC(=O)c1ccc(NC(=O)c2cccc(C#Cc3ccccn3)c2)cc1 [Compound 63, Methyl 4-(3-(pyridin-2-ylethynyl)benzamido)benzoate]	0.55 µM		> 30 µM	0.43 µM	
COC(=O)c1cccc(NC(=O)c2cccc(C#Cc3ccccn3)c2)c1 [Compound 64, Methyl 3-(3-(pyridin-2-ylethynyl)benzamido)benzoate]	> 30 µM		21.7 µM	4.19 µM	
CC(C)(C)c1ccc(NC(=O)c2cccc(C#Cc3ccccn3)c2)cc1 [Compound 67, N-(4-(tert-butyl)phenyl)-3-(pyridin-2-ylethynyl)benzamide]	4.25 µM		> 30 µM	3.51 µM	
O=C(Nc1ccc(C(O)(C(F)(F)F)C(F)(F)F)cc1)c1cccc(C#Cc2ccccn2)c1 [Compound 68, N-(4-(1,1,1,3,3,3-hexafluoro-2-hydroxypropan-2-yl)phenyl)-3-(pyridin-2-ylethynyl)benzamide]	27.7 µM		9.72 µM	0.52 µM	
CC(=O)Nc1ccc(NC(=O)c2cccc(C#Cc3ccccn3)c2)cn1 [Compound 71, N-(6-acetamidopyridin-3-yl)-3-(pyridin-2-ylethynyl)benzamide]	4.13 µM		> 30 µM	3.98 µM	
COc1cc(C#Cc2ccccn2)cc(C(=O)Nc2ccc(N3CCCCC3=O)cc2)c1 [Compound 72, 3-methoxy-N-(4-(2-oxopiperidin-1-yl)phenyl)-5-(pyridin-2-ylethynyl)benzamide]	0.51 µM		26.6 µM	0.24 µM	
O=C(Nc1ccc(N2CCCS2(=O)=O)cc1)c1cccc(C#Cc2ccccn2)c1 [Compound 74, N-(4-(1,1-dioxidoisothiazolidin-2-yl)phenyl)-3-(pyridin-2-ylethynyl)benzamide]	> 30 µM		> 30 µM	0.91 µM	
COc1cc(C#Cc2ccccn2)cc(C(=O)Nc2ccc(N3CCCCS3(=O)=O)cc2)c1 [Compound 75, N-(4-(1,1-dioxido-1,2-thiazinan-2-yl)phenyl)-3-methoxy-5-(pyridin-2-ylethynyl)benzamide]	0.128 µM		> 30 µM	0.065 µM	
COc1cc(C#Cc2ccccn2)cc(NC(=O)c2ccc(N3CCCCS3(=O)=O)cc2)c1 [Compound 76]	0.189 µM		> 30 µM	0.172 µM	
O=C(Nc1cccc(C#Cc2ccccn2)c1)c1ccc(N2CCCCS2(=O)=O)cc1 [Compound 77]	0.957 µM		> 30 µM	0.791 µM	
N#Cc1cc(C#Cc2ccccn2)cc(NC(=O)c2ccc(N3CCCCC3=O)cc2)c1 [Compound 78]	1.97 µM		> 30 µM	1.54 µM	
COc1cc(C#Cc2ccccn2)cc(C(=O)Nc2ccc(CC3CC(=O)NC3=O)cc2)c1 (centres unmarked) [Compound 79]	8.19 µM		> 30 µM	4.45 µM	
